This is an account of results in patent US20040014814A1, “Compositions and methods for delaying preventing rejuvenating or reversing senescence in cells” (priority 2000, published 2004).

The test system of data set [1] is MRC-5 cells. As to the kind of experiment: Effect of carnosine derivatives on cell growth / toxicity in MRC-5 cell cultures. It is filed as cell-based, human. Also on record: key to Effect on cell growth (score): (0) Toxic to cell growth; (10) Confluent cell growth. The note with it: for Effect on cell growth (score): MRC-5 cells, scale 0 toxic to 10 confluent; for Cell Growth: summary grade. Here is the method: (§1) MRC -5 cells (fetal lung fibroblasts) were grown in Dulbecco's modification of Eagles' minimum essential medium (DMEM Gibco BRL Cat. No. 12800-017) containing 0.45% glucose, or MEM (Gibco BRL Cat. No. 612800-017) containing 0.1% glucose. Both media contained 10% fetal calf scrum (TRACE Biosciences Cat. No. 15-010-0500V) and Penicillin/Streptomycin 5000 IU, 5000 μg/ml (TRACE Biosciences Cat. No. 21-140-0100V). Cells were grown in […] flasks or in dishes (35 mm or 60 mm, Nunc) at 37° C. with 5% CO2. Cells were harvested with trypsin (TRACE Biosciences Cat. No. 21-163-0100V) and counted with a model ZF6 Coulter Counter. Cells were split in ratios of 1:2 or 1:4. Population doublings (PDs) were calculated from the ratio of the initial number of cells plated to the yield of cells after a period of time. This provides an accurate measure of cell growth, with the split ratios 1:2 and 1:4 corresponding to one and two passages respectively, which are broadly equivalent to population doublings. The media was changed every 5 days or when cells became confluent.
MRC-5 cells were used to observe the toxicity of a series of derivatives of carnosine on cell growth. Cell cultures were grown in DMEM media with 10% fetal calf serum and supplemented with the following carnosine analogues: carnosine ethyl ester, carnosine iso-propyl ester, carnosine n-butyl ester, carnosine n-hexyl ester, N-propyl carnosine, N-hexanoyl carnosine, N-trimethyl acetyl carnosine, N-acetyl carnosine methyl ester, N-acetyl carnosine ethyl ester and N-acetyl carnosine, […] Cells were also grown in DMEM supplemented with carnosine at 20 mM. […] Even at lower concentrations cell morphology was that of cells that have reached senescence i.e. broad flat cells with long process reaching out to other cells. Cell numbers were less than in the control flasks. […] As shown in FIG. 1 Acetyl-carnosine achieved a lifespan 5 PDs greater than the control and 6.7 PDs greater than carnosine over a 43 day period. […] In the early phase of the experiment growth rates were markedly greater than with the other compounds (FIG. 1).

In data set [2] the test system is MRC-5 cells. As to the kind of experiment: Lifespan (population doublings) of MRC-5 cells in culture. It is filed as cell-based, human. Also on record: key to Lifespan extension: 0 = zero effect; 10 = maximum effect. The note with it: for Lifespan of MRC-5 cells in culture, Population Doublings (PD): commenced at passage 55; for Lifespan extension: summary grade. How it is done: Cultures were split in a 1:4 ratio when flasks were approximately 70-80% confluent.
as §1
MRC-5 cells were used to observe the toxicity of a series of derivatives of carnosine on cell growth. Cell cultures were grown in DMEM media with 10% fetal calf serum and supplemented with the following carnosine analogues: carnosine ethyl ester, carnosine iso-propyl ester, carnosine n-butyl ester, carnosine n-hexyl ester, N-propyl carnosine, N-hexanoyl carnosine, N-trimethyl acetyl carnosine, N-acetyl carnosine methyl ester, N-acetyl carnosine ethyl ester and N-acetyl carnosine, at concentrations ranging between 1 mM to 20 mM. Cells were also grown in DMEM supplemented with carnosine at 20 mM. […] Even at lower concentrations cell morphology was that of cells that have reached senescence i.e. broad flat cells with long process reaching out to other cells. Cell numbers were less than in the control flasks. […] As shown in FIG. 1 Acetyl-carnosine achieved a lifespan 5 PDs greater than the control and 6.7 PDs greater than carnosine over a 43 day period. […] In the early phase of the experiment growth rates were markedly greater than with the other compounds (FIG. 1).
In fact all populations of MRC-5 cells grown in DMEM supplemented with acetyl-carnosine preserved a younger phenotype for much longer than cells grown in DMEM supplemented with carnosine or its analogues.
Under control conditions the range was 57.3-64.5 PDs (n=5). With the addition of carnosine (20mM) to the medium the range was 61.8-63.7 PDs (n=5) with an average increase of 1.4 PDs which represents a 3 fold increase in cell number. However, when acetyl-carnosine (5 mM) was added to the medium, the range was 62.3-70.3 PDs (n=5) with an average increase of 5 PDs compared with the controls. This represents a 32 fold increase in cell number.

The test system of the next data set is corneal epithelial cells. Description: Uptake of radio-labeled (3H) compounds in fresh bovine eyes (corneal epithelium into aqueous humour). The note with it: after 4 hours. Type of data set: in vitro ADME. Here is the method: Radio-labeled (3H) carnosine and acetyl-carnosine were assayed for their rate of uptake using fresh bovine eyes and MRC-5 fibroblast cultures. For bovine eyes small cylinders (radius 3.5mm and height 8mm) placed on top of the eye formed a fix seal with the corneal epithelial cells. 200 microlitres of the radio-labeled compounds in 5mM unlabeled compound in phosphate buffered saline were instilled onto the eye and at different time points 600 μl of aqueous humour was aspirated using a 25 gauge needle for counting in the scintillation counter.
The uptake experiments were repeated using fresh bovine eyes.

Another data set relates to human blood peptidases. Description: Stability in human blood serum / attack by human blood peptidases. Type of data set: in vitro ADME. The note with it: human blood serum.
The nature of data set [3]: Fate of compound after cellular uptake. It is filed as cell-based. The note with it: compared with acetyl-carnosine. How it is done:
Experiments were conducted to determine the fate of acetyl-carnosine and carnosine after cellular uptake. […] A slower metabolism and incorporation into other proteins may be one reason for acetyl-carnosine having higher effective intracellular concentrations compared with carnosine despite its lower overall uptake.

For data set [4], the system named is MRC-5 cells. Also on record: Cell and eye uptake assay: key to the marks not given beside the values.
In data set [5] the test system is MRC-5 cells. The note with it: carnosine supplemented media; cited from earlier work.
In a further data set the test system is senescent MRC-5 cells. The note with it: 20 mM; PCT/AU91/00541; cited from earlier work.
For data set [6], the system named is UV-Induced Immuno-suppression. Also on record: key: 0 = zero effect; 10 = maximum effect. The note with it: footnote (3) Australian provisional PQ 5150; cited from earlier work.
The test system of data set [7] is MRC-5 cells. As to the kind of experiment: Uptake of radio-labeled (3H) compounds by MRC-5 fibroblast cells. The note with it: MRC-5 cells, after 48 hours.
Procedure: For MRC-5 cells, (3H)—carnosine and acetyl carnosine were added to the medium of near confluent 60mm culture dishes. At different time points cells were washed three times with phosphate buffered saline, cells harvested and cell-associated radioactivity determined using Packard Starscint scintillation fluid.
The rate of uptake of carnosine and acetyl-carnosine by MRC-5 cells was studied using radio-labeled tritiated (3H) carnosine and acetyl-carnosine compounds. The uptake was measured in MRC-5 cells at passage 28 over a 48 hour period (FIG. 3A).

On to `CCOC(=O)[C@H](Cc1cnc[nH]1)NC(=O)CCN` [Carnosine ethyl ester, carnosine ethyl ester], for which the “Effect on cell growth (score)” value with MRC-5 cells [1] (2 mM) came out at 5; with MRC-5 cells [1] (5 mM), 5; in the data set with MRC-5 cells [1] (10 mM), 4; with MRC-5 cells [1] (20 mM) it was 3.
On to `CC(C)OC(=O)[C@H](Cc1cnc[nH]1)NC(=O)CCN` [Carnosine iso-propyl ester, carnosine iso-propyl ester], for which the “Effect on cell growth (score)” value is given as 2 in the data set with MRC-5 cells [1] (2 mM), 0 in the data set with MRC-5 cells [1] (5 mM), 0 with MRC-5 cells [1] (10 mM) and 0 in the data set on MRC-5 cells [1] (20 mM). Further, in the data set on MRC-5 cells [1], the “Cell Growth” value is recorded as “TOXIC”.
`CCCCOC(=O)[C@@H](Cc1cnc[nH]1)NC(=O)CCN` [Carnosine n-butyl ester, carnosine n-butyl ester]: the “Effect on cell growth (score)” value with MRC-5 cells [1] (2 mM) turned out to be 5; with MRC-5 cells [1] (5 mM) it was 5; in the data set on MRC-5 cells [1] (10 mM), 2; in the data set with MRC-5 cells [1] (20 mM) it was 0. Besides, in the data set with MRC-5 cells [1], the “Cell Growth” value is recorded as “TOXIC”.
Consider `NCCC(=O)N[C@@H](Cc1cnc[nH]1)C(=O)O` [Carnosine, β-alanyl-L-histidine, reference compound], for which the “Effect on cell growth (score)” value amounted to 5 in the data set with MRC-5 cells [1] (5 mM), 6 in the data set on MRC-5 cells [1] (10 mM) and 7 with MRC-5 cells [1] (20 mM). In addition, in the data set with MRC-5 cells [2] (20 mM in medium, n=5), the “Range of lifespans of populations of MRC-5 cells” value is given as 61.8-63.7 PDs. Besides, in the data set on MRC-5 cells [2] (20 mM), the “Lifespan of MRC-5 cells in culture, Population Doublings (PD)” value (shortened to “Lifespan of MRC-5 cells in culture”) turned out to be 8.5 PD. In addition, the “Average increase in lifespan compared with controls” value in the data set on MRC-5 cells [2] (20 mM, n=5) is recorded as 1.4 PDs. In addition, the “Increase in cell number” value in the data set with MRC-5 cells [2] (20 mM, worked out from the PD increase) is reported as 3 fold. Also, the “Increase in cell mass” value in the data set on MRC-5 cells [2] (cells exposed to supplemented media) stood at 3 fold. For the same molecule, the “Uptake of (3H) compound into aqueous humour” value in the data set on corneal epithelial cells is on record as 1.3%. In addition, the “Uptake relative to acetyl-carnosine” value is on record as 2 times in the data set with corneal epithelial cells and 2 times in the data set on MRC-5 cells [4] (human, 48 h). Further, the “Stability in human blood serum” value in the data set with human blood peptidases is “rapidly destroyed”. Further, in data set [3], the “Incorporation of label into higher molecular weight proteins after uptake” value was “more rapidly incorporated into higher molecular weight proteins”. Also, the “Cell and eye uptake assay” value in the data set on MRC-5 cells [4] was “++++”. In addition, the “Uptake of (3H) compound by MRC-5 cells” value in the data set on MRC-5 cells [4] (human, 48 h) was determined as 0.32%. Further, the “Increase in cell mass reported by McFarland & Holliday” value in the data set on MRC-5 cells [5] was 12 fold. The “Effect on senescent MRC-5 cells transferred to supplemented medium” value in the data set with senescent MRC-5 cells is “rejuvenated”. Also, in [6], the “UV immuno suppression: post irradiation assay (3)” value is listed as 0. Moreover, the “Number of cells growing in supplemented media” value in the data set with MRC-5 cells [7] was 2.4×10^6.
As to `CCOC(=O)C(Cc1cnc[nH]1)NC(=O)CCNC(C)=O` (centres unmarked) [N-acetyl carnosine ethyl ester], the “Effect on cell growth (score)” value is given as 6 in the data set on MRC-5 cells [1] (0.5 mM); 5 in the data set with MRC-5 cells [1] (1 mM); 4 with MRC-5 cells [1] (2 mM); 4 with MRC-5 cells [1] (5 mM); 2 with MRC-5 cells [1] (10 mM); 0 in the data set on MRC-5 cells [1] (20 mM).
`COC(=O)C(Cc1cnc[nH]1)NC(=O)CCNC(C)=O` (centres unmarked) [N-acetyl carnosine methyl ester]: the “Effect on cell growth (score)” value with MRC-5 cells [1] (0.5 mM) was determined as 6; in the data set on MRC-5 cells [1] (1 mM), 6; in the data set with MRC-5 cells [1] (2 mM), 5; with MRC-5 cells [1] (5 mM), 5; in the data set with MRC-5 cells [1] (10 mM), 5; in the data set with MRC-5 cells [1] (20 mM) it was 0.
Consider `CCCCCC(=O)NCCC(=O)N[C@@H](Cc1c[nH]cn1)C(=O)O` [N-hexanoyl carnosine], for which the “Effect on cell growth (score)” value with MRC-5 cells [1] (0.5 mM) was 6; with MRC-5 cells [1] (1 mM) it was 6; with MRC-5 cells [1] (2 mM) it was 5; in the data set with MRC-5 cells [1] (5 mM) it was 4; in the data set with MRC-5 cells [1] (10 mM), 3; in the data set on MRC-5 cells [1] (20 mM), 3. In the data set with MRC-5 cells [2] (5 mM), the “Lifespan of MRC-5 cells in culture” value came to 10.8 PD. In addition, the Lifespan extension in the data set on MRC-5 cells [2] is 0.
With `CC(C)(C)C(=O)NCCC(=O)NC(Cc1cnc[nH]1)C(=O)O` (centres unmarked) [N-trimethyl acetyl carnosine], the “Effect on cell growth (score)” value in the data set on MRC-5 cells [1] (0.5 mM) worked out at 6; with MRC-5 cells [1] (1 mM), 6; with MRC-5 cells [1] (2 mM), 5; with MRC-5 cells [1] (5 mM), 4; with MRC-5 cells [1] (10 mM) it was 3; in the data set on MRC-5 cells [1] (20 mM), 3. Also, in the data set on MRC-5 cells [2] (5 mM), the “Lifespan of MRC-5 cells in culture” value stood at 9.4 PD. This molecule also yielded a Lifespan extension in the data set with MRC-5 cells [2] of 0.
Consider `CCCCCCOC(=O)[C@H](Cc1c[nH]cn1)NC(=O)CCN` [carnosine n-hexyl ester], for which the “Effect on cell growth (score)” value with MRC-5 cells [1] (2 mM) was 3; in the data set on MRC-5 cells [1] (5 mM) it was 1; in the data set on MRC-5 cells [1] (10 mM) it was 0; in the data set with MRC-5 cells [1] (20 mM), 0. Moreover, the “Cell Growth” value with MRC-5 cells [1] is “TOXIC”.
As to N-propyl carnosine, the “Effect on cell growth (score)” value in the data set with MRC-5 cells [1] (0.5 mM) is given as 6; in the data set with MRC-5 cells [1] (1 mM) it was 6; in the data set with MRC-5 cells [1] (2 mM), 5; in the data set with MRC-5 cells [1] (5 mM) it was 4; in the data set on MRC-5 cells [1] (10 mM), 3; in the data set on MRC-5 cells [1] (20 mM), 2. In addition, in the data set on MRC-5 cells [2] (5 mM), the “Lifespan of MRC-5 cells in culture” value was 11.0 PD. The same molecule displayed a Lifespan extension in the data set on MRC-5 cells [2] of 0.
